Structures are written as SMILES. Where two headings read alike, the source gives them in different places.

The subject of data set [1] is Sephadex induced lung edema. The data set is described as follows: Lung selectivity: ratio of oral and local ED50 in the Sephadex induced lung edema model. As to conditions: in liposomes; ED50 p.o. / ED50 left lung lobe. The data set is classed as in vivo, Sprague Dawley rats. The text has this:
A considerable fraction of inhaled GCS is deposited in the pharynx and is subsequently swallowed, ending up in the gut. This fraction contributes to the unwanted side effects of the steroid since it is acting outside the area (the lung) intended for treatment. Therefore, it is favourable to use a GCS with high local anti-inflammatory activity in the lung but low GCS-induced effects after oral administration. Studies were therefore done in order to determine the GCS-induced effects after local application in the lung as well as after peroral administration, and the differentiation between glucocorticosteroid actions in the treated lung region and outside this area was tested in the following way.
(§1) A) Test model for desired local antiinflammatory activity on airway mucosa (left lung lobe).
(§2) Sprague Dawley rats (250 g) were slightly anaesthetized. with Ephrane and the glucocorticosteroid test preparation (in liposomes suspended in saline) in a volume of 0.5 ml/kg was instilled into the left lung lobe only. Two hours later a suspension of Sephadex (5 mg/kg in a volume of 1 ml/kg) was instilled in the trachea well above the bifurcation so that the suspension reached both the left and right lung lobes. Twenty hours later the rats were killed and the left lung lobes dissected out and weighed. Control groups got vehicle instead of glucocorticosteroid preparation and saline instead of Sephadex suspension so that lung weight due to non-drug-treated, Sephadex-induced edema and the normal lung weight could be determined.
(§3) B) Test model for unwanted systemic effect by orally absorbed glucocorticosteroid
(§4) Sprague Dawley rats (250 g) were slightly anaesthetized with Ephrane and the GCS test preparation in a volume of 1.0 ml/kg was given orally. Two hours later a suspension of Sephadex (5 mg/kg in a volume of 1 ml/kg) was instilled in the trachea well above the bifurcation so that the suspension reached both the left and the right lung lobes. Twenty hours later, the rats were killed and the lung lobes were weighed. Control groups got vehicle instead of glucocorticosteroid preparation and saline instead of Sephadex suspension so that lung weight due to non-drug-treated, Sephadex-induced edema and the normal lung weight could be determined.

The subject of data set [2] is Sephadex induced lung edema (left lung lobe). The data set is described as follows: Desired local antiinflammatory activity on airway mucosa (left lung lobe), Sephadex induced lung edema model, local instillation. It counts as in vivo, Sprague Dawley rats. As to conditions: Rattus norvegicus; in liposomes; instilled into left lung lobe 2 h before Sephadex; dose to reduce the edema by 50%; lungs weighed 20 h after Sephadex; read-out: ED50 (left lung administration) Left lung lobe. Here is the method:
as §1, §2

Data set [3] deals with Sephadex induced lung edema (lung). Description: Unwanted systemic effect by orally absorbed glucocorticosteroid, Sephadex induced lung edema model, oral administration. The data set is classed as in vivo, Sprague Dawley rats. As to conditions: Rattus norvegicus, 20 h, in liposomes, given orally 2 h before Sephadex, dose to reduce the edema by 50%, read-out: ED50 (p.o. adm.) lung. Here is the method:
as §3, §4

For data set [4] the following is noted: cited from earlier work; for unwanted GCS actions within the general circulation: highest of the recommended doses for inhalation.

In the case of `CCCCCCCCCCCCCCCC(=O)OCC(=O)[C@@]12OC(CCC)O[C@@H]1C[C@H]1[C@@H]3CCC4=CC(=O)C=C[C@]4(C)[C@H]3[C@@H](O)C[C@@]12C` (stereo partly drawn) [Budesonide-21-palmitate (RS), Budesonide-21-palmitate], the “Ratio oral/local administration (ED50)” value in data set [1] is given as 66. In addition, the ED50 was 0.023 µmol/kg in data set [2] and 1.52 µmol/kg in data set [3].
Turning to `CCCCCCCCCCCCCCCC(=O)OCC(=O)[C@@]12O[C@H](CCC)O[C@@H]1C[C@H]1[C@@H]3C[C@H](F)C4=CC(=O)CC[C@]4(C)[C@@]3(F)[C@@H](O)C[C@@]12C` [Example 1, (22R)-16α,17α-Butylidenedioxy-6α,9α-difluoro-11β-hydroxy-21-palmitoyloxypregn-4-ene-3,20-dione], the “Ratio oral/local administration (ED50)” value in data set [1] is listed as 559. Also, the ED50 is 0.0015 µmol/kg in data set [2] and 0.839 µmol/kg in data set [3].
For `CCCC1O[C@@H]2C[C@H]3[C@@H]4CCC5=CC(=O)C=C[C@]5(C)[C@H]4[C@@H](O)C[C@]3(C)[C@]2(C(=O)CO)O1` (some centres unmarked) [budesonide], the “unwanted GCS actions within the general circulation” value in data set [4] is reported as “unwanted GCS actions within the general circulation have been reported”. Moreover, in data set [4] (inhaled, clinical use), the safety margin entry is reported as “rather narrow safety margin”.
In the case of `CCCCCCCCCCCCCCCC(=O)OCC(=O)[C@@]12O[C@@H](CCC)O[C@@H]1C[C@H]1[C@@H]3C[C@H](F)C4=CC(=O)CC[C@]4(C)[C@@]3(F)[C@@H](O)C[C@@]12C` [Example 3, (22S)-16α,17α-Butylidenedioxy-6α,9α-difluoro-11β-hydroxy-21-palmitoyloxypregn-4-ene-3,20-dione], the “Ratio oral/local administration (ED50)” value in data set [1] was determined as 158. In addition, the ED50 was found to be 0.0035 µmol/kg in data set [2] and 0.554 µmol/kg in data set [3].
Take `CCCCCCCCCCCCCCCC(=O)OCC(=O)[C@@]12O[C@@H](CCC)O[C@@H]1C[C@H]1[C@@H]3C[C@H](F)C4=CC(=O)C=C[C@]4(C)[C@@]3(F)[C@@H](O)C[C@@]12C` [Example 7, (22S)-16α,17α-Butylidenedioxy-6α,9α-difluoro-11β-hydroxy-21-palmitoyloxypregna-1,4-diene-3,20-dione]: the “Ratio oral/local administration (ED50)” value in data set [1] is given as 247. Further, the ED50 in data set [2] turned out to be 0.0023 µmol/kg; in data set [3], 0.568 µmol/kg.
Regarding `CCCCCCCCCCCCCCCC(=O)OCC(=O)[C@@]1(O)[C@H](C)C[C@H]2[C@@H]3C[C@H](F)C4=CC(=O)C=C[C@]4(C)[C@@]3(F)[C@@H](O)C[C@@]21C` [Flumethasone-21-palmitate], in data set [1], the “Ratio oral/local administration (ED50)” value was determined as 8. Further, the ED50 in data set [2] is 0.0022 µmol/kg; in data set [3], 0.018 µmol/kg.
For the compound `CCC(=O)OCC(=O)[C@@]1(OC(=O)CC)[C@@H](C)C[C@H]2[C@@H]3CCC4=CC(=O)C=C[C@]4(C)[C@@]3(Cl)[C@@H](O)C[C@@]21C` [beclomethasone 17α,21-dipropionate], the “unwanted GCS actions within the general circulation” value in data set [4] is reported as “unwanted GCS actions within the general circulation have been reported”. Also, the safety margin result in data set [4] (in vivo) is “rather narrow safety margin”.
For the compound `CCCCCCCCCCCCCCCC(=O)OCC(=O)[C@@]12O[C@H](CCC)O[C@@H]1C[C@H]1[C@@H]3C[C@H](F)C4=CC(=O)C=C[C@]4(C)[C@@]3(F)[C@@H](O)C[C@@]12C` [Example 6, (22R)-16α,17α-Butylidenedioxy-6α,9α-difluoro-11β-hydroxy-21-palmitoyloxypregna-1,4-diene-3,20-dione], the ED50 in data set [2] was determined as 0.0018 µmol/kg.

The values above are taken from patent US5888995A, “Steroid esters” (priority 1991, dated 1999).
